“Also recorded” adds a separate entry of the source.
Experiments:
Assay type in all cases: cell-based
[1] = system: PEO4 cells; assay: cell proliferation assay, PEO4 cells
Description: (§1) FIG. 63 is a line graph showing the proliferation of PEO1 and PEO4 cells treated with increasing concentrations of cisplatin for 5 days. Data are represented as mean±SD from three independent experiments performed in triplicate. Indicated IC50 values represent the mean of […] independent experiments performed in triplicate.
FIG. 64 is a bar graph showing the synergistic effects of LY2784544 and cisplatin in PEO4 cells. CI values are presented above the bars. CI<1 indicates synergism, CI=1 indicates additive effect, and CI>1 indicates antagonism.
For ovarian cancer, recurrence more than 12 months after initial chemotherapy was considered as platinum sensitive. PEO4 was derived from the patient 10 months later when they had progressive disease and had become cisplatin resistant.

[2] = system: phosphorylation of JAK2 (Y1007/1008) and STAT5 (Y694); assay: western blot of JAK2/STAT5 signaling
Experimental: FIG. 22 is an illustration showing that LY2784544 down-regulates JAK2/STAT5 signaling in SKOV3 CR cells. Cells were treated with the indicated concentrations of LY2784544 for 48 hr.
FIG. 23 is an illustration showing the immunoblotting for the indicated targets in SKOV3 CR cells treated with vehicle (DMSO), 3 μM LY2784544, 5 μM cisplatin, or the combination for 48 hr.
To investigate the molecular mechanism by which the JAK2-mediated pathway regulates cisplatin resistance of ovarian cancer, the activation of the JAK2-mediated pathway in paired sensitive cell line (SKOV3, IGROV1, PEO1) and resistant cell lines (SKOV3 CR, IGROV1 CR, PEO4) was examined by western blot. Compared to cisplatin sensitive cells SKOV3 or IGROV1, the JAK2 protein levels are not changed in cisplatin resistant cells SKOV3 CR, IGROV1 CR, or PEO4.
The effects of LY2784544 on the JAK2/STAT5 signaling pathway in both SKOV3 and SKOV3 CR cells were examined.

[3] = system: SKOV3 CR cells; assay: apoptosis (Annexin V and Propidium Iodide staining, cleaved PARP)
Experimental: FIG. 2 is an illustration showing representative flow plots (A) and a bar graph (B) of SKOV3 and SKOV3 CR cells treated with cisplatin for 48 h and analyzed for Annexin V and Propidium Iodide staining by flow cytometry (A) and quantified apoptosis percentage (B). Data are represented as mean±SD from three independent experiments performed in triplicate. **p<0.01. FIG. 23 is an illustration showing the immunoblotting for the indicated targets in SKOV3 CR cells treated with vehicle (DMSO), 3 μM LY2784544, 5 μM cisplatin, or the combination for 48 hr. FIG. 24 is an illustration showing representative flow plots of SKOV3 CR cells treated with vehicle, 3 μM LY2784544, 5 μM cisplatin, or the combination (combo) for 48 hr and analyzed for Annexin V and Propidium Iodide staining by flow cytometry. Since cisplatin exerts its anticancer effect mainly through its ability to cause DNA damage, resulting in apoptosis, the apoptotic cells in both SKOV3 and SKOV CR cells were measured using Annexin V and Propidium Iodide staining. […] To test whether SKOV3 CR cells are resistant to cisplatin-induced apoptosis in vivo, both SKOV3 and SKOV3 CR cells were injected into nude mice to form xenograft tumors. Once the tumor size reached 100-150 mm^3, cisplatin was given to mice by intraperitoneal injections twice a week for 2 weeks. Three days after treatment, the apoptosis in tumors was examined by TUNEL staining. […] Currently, carboplatin is a more commonly used platinum drug employed clinically to treat ovarian patients. Ozols et al., J Clin Oncol 21: 3194-3200 (2003). Thus, it was tested whether SKOV3 CR cells are also resistant to carboplatin (Sigma-Aldrich). The effects of LY2784544 on the JAK2/STAT5 signaling pathway in both SKOV3 and SKOV3 CR cells were examined.

[4] = system: SKOV3 CR cells; assay: cell viability / proliferation (SRB) assay, cisplatin resistant SKOV3 CR cells
Experimental: as §1, with “FIG. 1” for “FIG. 63”, “of SKOV3 parental” for “of PEO1”, “and SKOV3 CR” for “and PEO4”, “for five” for “for 5”
(§2) FIG. 13 is a line graph showing the proliferation of SKOV3 parental and SKOV3 CR cells treated with increasing concentrations of cisplatin and 0.4 μM LY2784544 for five days. Data are represented as mean±SD from three independent experiments performed in triplicate.
(§3) Cisplatin resistant ovarian cancer cell lines were generated using procedures as described previously. Jazaeri et al., Mol Cancer Ther 12: 1958-1967 (2013). Ovarian cancer cells SKOV3 were cultured in the medium with cisplatin (Sigma-Aldrich) for three weeks, followed by release to cisplatin-free medium for another three weeks. In the next cycle, the cisplatin treatment was repeated in the medium with an increased concentration of cisplatin. After six-cycle treatment, cells were identified that were able to grow in the medium with a high concentration of cisplatin. These cisplatin resistant cells were named as SKOV3 CR (FIG. 1).
(§4) The results obtained from combinational HTS were confirmed by testing whether LY2784544 overcomes cisplatin resistance in ovarian cancer cells using multiple assays. […] The Combination index (CI), which quantitatively describes the interaction between drugs including synergism (CI<1), additive effect (CI=1), and antagonism (CI>1), was calculated.

[5] = system: SKOV3 cells; assay: cell viability / proliferation (SRB) assay, SKOV3 parental cells
Experimental: as §1, with “FIG. 1” for “FIG. 63”, “of SKOV3 parental” for “of PEO1”, “and SKOV3 CR” for “and PEO4”, “for five” for “for 5”
as §2, §3, §4

[6] = system: IGROV1 CR cells; assay: cell proliferation assay, cisplatin resistant IGROV1 CR cells
Description: as §1, with “60” for “63”, “IGROV1 parental” for “PEO1”, “IGROV1 CR” for “PEO4”, “days (left).” for “days.”
FIG. 61 is a bar graph showing the synergistic effects of LY2784544 and cisplatin in IGROV1 CR cells (right). CI values are presented above the bars. CI<1 indicates synergism, […] indicates additive effect, and CI>1 indicates antagonism.
Using a similar approach as described in FIG. 1, another cisplatin resistant ovarian cancer cell line IGROV1 CR was raised from its cisplatin sensitive parental cell IGROV1 cells. […] The cell proliferation of IGROV1 CR cells treated with cisplatin, LY2784544 or both LY2784544 and cisplatin was examined.

[7] = SKOV3 CR cells, 3 μM LY2784544 plus 5 μM cisplatin, 48 hr

Compound | fold increase of IC50, PEO4 vs PEO1 ([1]; 5 days) [fold] | IC50 ([1]; PEO4 cells, 5 days) [nM] | JAK2/STAT5 signaling after cisplatin treatment ([2]; SKOV3 parental cells, various small doses and times of cisplatin) | apoptosis, SKOV3 versus SKOV3 CR cells ([3]; cisplatin for 48 h, Annexin V and Propidium Iodide staining) | IC50 ([4]; SKOV3 CR cells, 5 days) [µM] | IC50 ([5]; SKOV3 parental cells, 5 days) [nM] | fold increase of IC50, IGROV1 CR vs parental IGROV1 ([6]; 5 days) [fold] | IC50 ([6]; IGROV1 CR cells, 5 days) [nM] | medium CI (combination index) ([1]; combination with cisplatin, PEO4 cells) | phosphorylation of JAK2 and STAT5 ([2]; both SKOV3 and SKOV3 CR cells, 48 hr) | apoptosis (cleaved PARP), single agent ([3]; SKOV3 CR cells, 3 μM LY2784544, 48 hr) | apoptosis (cleaved PARP), combination with cisplatin [3, 7] | apoptotic cells (Annexin V and Propidium Iodide), combination with cisplatin [3, 7] | cisplatin IC50 shift ability (comparison of the three hits) ([4]; SKOV3 CR cells) | sensitization of SKOV3 CR cells to cisplatin (proliferation) ([4]; combination with cisplatin at different doses, FIG. 13: 0.4 μM LY2784544, five days) | medium CI (combination index) ([4]; combination with cisplatin, SKOV3 CR cells, CI<1 synergism) | medium CI (combination index) ([5]; combination with cisplatin, SKOV3 cells, CI<1 synergism) | effect on cell proliferation of SKOV3 ([5]; medium with cisplatin or without cisplatin) | medium CI (combination index) ([6]; combination with cisplatin, IGROV1 CR cells)
N.N.[Cl][Pt][Cl] [cisplatin] | 6.2 | 1990 | JAK2/STAT5 signaling was activated | induced more apoptosis in SKOV3 cells than in SKOV3 CR cells | 10.4 | 2000 | 2.9 | 1500 |  |  |  |  |  |  |  |  |  |  | 
Cc1cc(Nc2cc(CN3CCOCC3)c3nc(C)c(Cc4ccc(Cl)cc4F)n3n2)n[nH]1 [LY2784544] |  |  |  |  |  |  |  |  | 0.34 | significantly reduced the phosphorylation of JAK2 as well as the phosphorylation of STAT5 | did not cause apoptosis | induced apoptotic cell death | significant increase of apoptotic cells | better cisplatin IC50 shift ability than MLN4924 or NSC319726 | significantly increased the sensitivity of SKOV3 CR cells to cisplatin; also recorded: re-sensitized SKOV3 CR cells to cisplatin | 0.69 | 0.93 | did not affect the cell proliferation of SKOV3 | 0.71

Reference: patent US20200031920A1, “Combination Therapy for Treating Cancer” (The George Washington University, priority 2017, published 2020)
